According to patent publication US12606795B2 (Thankcome Biological Science and Technology (SuZhou) Co., …, priority 2023, dated 2026):
Marks after values point to notes of the source that are not given here.

Key:
[1] = system: APP/PS1 double transgenic mice; assay: Alzheimer's disease in APP/PS1 double transgenic mice; format: in vivo
Source text: 20 12-month-old APP/PS1 double transgenic mice (Hangzhou Ziyuan Experimental Animal Technology Co., Ltd., batch MJ0324-058) were randomly divided into two groups: an APP group and an APP+AKK group, with 10 mice in each group. Another 10 littermate wild-type C57 BL/6J mice were taken as blank, which served as a WT group. All mice were given intragastric administration and injection for 30 d at 12-month age (see Table 7 for intragastric administration conditions). After all the experiments ended, blood was collected from the orbital veins of the mice. The mice were sacrificed by cervical dislocation. Part of brain tissue, liver tissue and colon tissue of the mice were taken and placed in 4% paraformaldehyde, and the remaining tissue was placed in an ultra-low temperature freezer at −80° C. for storage.
DDW: Double distilled water.
After administration, a Morris water maze experiment of a 4-day duration was conducted firstly. The water maze consists of a circular pool (with a diameter of 120 cm) and is evenly divided into four quadrants. During the experiment, the mice were moved into a laboratory two hours in advance to acquaint themselves with the environment. The water temperature was adjusted to around 21° C. to 22° C., and then milk was poured into the pool to make the water milky white. D1 to D3 were a training period, during which the mice were gently placed into the water from first, second, third, and fourth quadrants with their faces towards the direction of the pool wall reminders. Swimming trajectories at 1 min were recorded. […] Each mouse was trained once per day per quadrant for 3 consecutive days. D4 was an experimental period, during which a quadrant was randomly selected for each mouse and then the mice were placed in the pool. The time required to find the platform within 60 s, i.e., escape latency, was recorded, and the swimming trajectory of each mouse was recorded with a video acquisition system. If the mouse fail to find the platform within 60 s after entering the water, the escape latency is recorded as 60 s.
A hippocampus was homogenized in 1 mL RIPA (Thermofisher, Waltham, MA, USA) and 10 μL PMSF (Thermofisher), and the homogenized hippocampus was centrifuged at 4° C. at 12000×g for 5 min. Proteins were quantified using a BCA protein assay kit (Thermofisher). A protein sample was mixed with a sample buffer (Thermofisher) in a ratio of 4:1, and the mixture was heated at 95° C. for 5 min. Then the sample was dispensed into gel pores of SDS-PAGE gel and the gel was run at 100 V. Strips on SDS-PAGE gel were transferred onto a PVFD membrane. The PVDF membrane was sealed with 5% skim milk for 1 h, and then the stripes were incubated overnight with a primary antibody (Thermofisher) at 4° C. An antibody (Thermofisher) was added after the membrane was washed and the incubation was performed for 1 h. Images on iBright™ (Thermofisher) were obtained after chemiluminescence was performed using a western ECL substrate (Thermofisher), where the images were used for subsequent analysis.
The hippocampus was taken and homogenized with PBS, and then liquid supernatant was drawn for the experiment. The levels of IL-4 (interleukin-4, Nanjing Jiancheng Biological Engineering Research Institute, product number: H005-1-2), IL-10 (interleukin-10, Nanjing Jiancheng Biological Engineering Research Institute, product number: H009-1-2), CCL2 (chemokine ligand 2, Nanjing Jiancheng Biological Engineering Research Institute, product number: H318-1) and CXCL1 (CXC chemokine ligand 1, Nanjing Jiancheng Biological Engineering Research Institute, product number: H306-1) in the hippocampus were tested by the instruction of the ELISA kit.

[2] = Tolerance to artificial intestinal juice; format: physicochemical; conditions: artificial intestinal juice pH 8.0, 37° C., at 240 min
Procedure: Gastric juice ([…], 2 g/L NaCl, and 3.2 g/L pepsin, pH 2.0) and intestinal juice (6.8 g/L KH2 PO4, 10 g/L trypsin, and 0.1M NaOH, pH 8.0) were prepared, and then the gastric juice and the intestinal juice were filtered and sterilized using 0.22 μm sterile filter. […] The bacterial cells were washed twice with sterile saline and resuspended in 5 mL saline. A bacterial solution was mixed well with the sterile artificial gastric or intestinal juice in 1:1 (v/v). The mixture was shaken well, and then was placed in a constant-temperature incubator and culture was performed at 37° C.

[3] = system: DSS-induced ulcerative colitis mice; assay: DSS-induced ulcerative colitis in mice; format: in vivo, C57BL/6J mice; conditions: 5.0% DSS mice, 1×10^10 CFU/mL intragastric daily 9 d
Procedure: Animals and their management: male C57BL/6J mice (6 to 10-week-old, weighing 18 to 24 g) purchased from the Beijing Huafukang Biotechnology Co., Ltd, where procedures involving mice were carried out in strict accordance with international animal care standards, and approved by the Animal Protection Institute and Management Committee of Jilin Agricultural University. Adaptive culture was performed for 1 week, and mice were cultured at room temperature (25° C.±1° C.) in a cycle of 12 h of light and 12 h of darkness.
Animal experimental design: 5.0% (wt/vol) DSS (molecular weight: 36,000 to 50,000) was added to drinking water of the mice for 3 consecutive days to induce colitis. Beginning on the first day of taking DSS, the A. muciniphila (viable or inactivated, with a concentration of 1×10^10 CFU/mL) was intragastrically administered per day for 9 consecutive days. C57BL/6J mice were randomly divided into four groups: a control group, a DSS model group (DSS), an AKK PRO group, and an inactivated AKK PRO group (mAKK PRO). Physiological indicators of the mice in each group were observed.
Physiological indicators: The physiological indicators are used for assessing health statuses of the mice. The individual scores of the mice were combined to generate disease activity indices (DAI), including changes of body weight, food intake, and fecal consistency. After the mice were euthanized, the colon length and the liver weight of each mouse in each group were measured, and an immune organ index was calculated according to the following formula: liver index=liver weight (mg)/body weight (g) [Wang, X., et al., Troxerutin Improves Dextran Sulfate Sodium-Induced Ulcerative Colitis in Mice. J Agric Food Chem, 2021. 69 (9): p. 2729-2744.].

[4] = 1*10^9 CFU/mouse/d intragastric 30 d, vs APP group
[5] = APP+AKK group compared with APP group

Akkermansia muciniphila [AKK PROBIO]
escape latency (Morris water maze) [1, 4]: shortened | path to finding the platform (Morris water maze) [1, 4]: significantly shortened | levels of CXCL1 and CCL2 [1, 5]: declining trend | levels of IL-4 and IL-10 [1, 5]: rising trend | Hippocampus IL-4 ([1]; APP/PS1 mice, 1*10^9 CFU/mouse/d 30 d, APP group 54.73, WT 410.91): 210.90 ± 19.77^c | Hippocampus CCL2 ([1]; APP/PS1 mice, 1*10^9 CFU/mouse/d 30 d, APP group 159.11, WT 103.32): 123.20 ± 0.50^b | Hippocampus Aβ ([1]; APP/PS1 mice, 1*10^9 CFU/mouse/d 30 d, APP group 348.45, WT 59.23): 185.15 ± 9.07^b | Hippocampus IL-10 ([1]; APP/PS1 mice, 1*10^9 CFU/mouse/d 30 d, APP group 1035.86, WT 3373.80): 2516.88 ± 91.80^c | Hippocampus CXCL1 ([1]; APP/PS1 mice, 1*10^9 CFU/mouse/d 30 d, APP group 1217.20, WT 355.37): 653.77 ± 15.44^b | survival rate in intestinal juice [2]: ≥ 80% | immune organ index (liver index) ([3]; vs DSS group): significantly decreased | colon length ([3]; vs DSS group, P<0.05): significantly increased | DAI score ([3]; vs model group): lower | body weight reduced ([3]; vs model group): less | food intake reduced ([3]; vs model group): less
